Experimental data as given in patent US9138393B2, “Cosmetic compositions containing substituted azole and methods for improving the appearance of aging skin” (The Proctor & Gamble Company, priority 2013, dated 2015).

Key:
CYP3A4 = CYP3A4 (Homo sapiens (Human), UniProt P08684); assay: In vitro CYP3A4 inhibition assay (P450-GLO Assay kit, Promega)
From the text: The metabolism of retinoic acid and vitamin D in the skin is incompletely understood, but there is evidence for the involvement of CYP26A1, CYP3A4 and CYP2C8 in catalyzing the 4-hydroxylation of all-trans RA to 4-hydroxy-RA. It is believed, without being limited by theory, that CYP3A4 may be particularly important for ATRA metabolism in the skin. This is because CYP3A4 is expressed in skin, involved in RA metabolism, a CYP with one of the broadest substrate specificities of all of the known CYPs and available as a human recombinant protein in a commercial kit. Thus, a commercially available CYP3A4 assay was used as a surrogate to predict RAMBA potential in the skin.
The commercially available P450-GLO™ Assay kit (Promega Corporation, Madison Wis.) was used to screen various compounds for potential CYP activity, specifically CYP3A4A inhibition activity. CYP3A4A is thought to be among the primary CYP isoforms responsible for retinoic acid metabolism in the skin.
A commercially available P450-GLO™ Assay kit (Promega Corporation, Madison Wis.) is used to screen various compounds for CYP3A4A inhibition activity. CYP3A4A is thought to be one of the primary CYP isoforms responsible for retinoic acid metabolism in the skin.

[1] = system: ATRA 4-hydroxylase (CYP) activity; assay: in vitro; conditions: pig, pH 7.4
From the text: (§1) Cytochrome P450 is a large and diverse group of enzymes that catalyze the oxidation of organic substances. […] Applicant evaluated the potential RAMBA activity of several azoles using pig liver microsomes, a rich source of CYP activity, comprising many different CYP 450 isoforms. […] As understanding in this area has progressed, a more specific CYP inhibition assay can be used to provide better predictivity of activity in human skin. Nevertheless, this assay may still be used as a general predictor of overall CYP activity.
(§2) All procedures were carried out under minimal light in order to prevent degradation of the retinoid samples.
(§3) Microsomal preparation: One lobe of fresh pig liver is obtained (e.g., at about the time of slaughter from a food-processing company) and immediately placed in ice cold 15 mM KH2PO4/250 mM sucrose (pH 7.4) and kept on ice during transportation. A 10 g sample of liver is minced and homogenized in 30 mL of homogenization buffer (15 mM KH2PO4/250 mM sucrose) using a Tekmar homoginizer or equivalent by pulsing 3 times with 20 second pulses. […] The remaining pig liver may be stored at −80° C. The homogenates from the 8 samples are pooled and centrifuged at 13,000×g for 20 minutes at 4° C. to remove crude debris. The supernatant is further centrifuged at 100,000×g for 70 minutes at 4° C. The microsomal pellets are re-suspended into 50 mL of 150 mM KH2PO4/1 mM DTT (pH 7.4) and 1 mL aliquots are stored at −80° C.
(§4) 100-150 μg of pig liver microsomal protein in 150 mM KH2PO4 is incubated at 37° C. in the presence of radiolabeled ATRA and 5 mM NADPH for 90 min. The final ATRA concentration is 1 μM, as a combination of [20-Methyl-^3H]ATRA and unlabeled ATRA. Initially, radiolabeled ATRA may be used to assist in validating the method. Once retention times of retinoid metabolites are identified, unlabeled ATRA is used for screening. Compounds tested as possible competitive substrates are added to the assay 10 min prior to the addition of ATRA. Ethanol, containing 0.1% butylated hydroxytoluene (BHT) as an antioxidant, is used to stop the reactions. For recovery of ATRA the pH of reactions are adjusted to 3.0 before extraction with 0.1N HCl. Retinoids are extracted from the protein aqueous phase with 4 mL hexane, 1 ml 100 μg/ml BHT in water (pH 3). An additional 4 mL of hexane (pH 3) is used for a second extraction. The organic extractions are pooled, evaporated to dryness using a speed vac, and resuspended in 62.5 μl acetonitrile containing 1 mg/ml BHT. Samples are analyzed by HPLC.HPLC separation of retinoids. […] Mobile phases used for gradient elution of retinoids are those of Duell et al., J. Clin. Invest. […] Mobile phase A is acetonitrile:0.02 M ammonium acetate:acetic acid (1:1:0.01) and mobile phase B is acetonitrile:0.2M ammonium acetate:acetic acid (19:1:0.008). At the start of the HPLC run, solvent A is run 100% followed by a linear gradient to solvent B at 3 minutes, a shallow gradient to 81% solvent B at 38 minutes, and 100% solvent B at 40 minutes. […] Effluent from the HPLC column flows directly into a flow-through scintillation spectrometer […]. Because of the sensitivity limitations of the β-RAM spectrometer, it is not used to quantitate peak areas but rather to confirm ATRA and ATRA 4-hydroxylase activity. Calculated peaks areas (using Millenium software—Waters Corp.) of ATRA and ATRA metabolites are used to quantify relative activity levels.

[2] = system: ATRA 4-hydroxylase (CYP) activity of pig liver microsomes; assay: In vitro ATRA 4-hydroxylase activity assay to determine CYP inhibition (pig liver microsomes); conditions: pig liver microsomes
From the text: as §1, §2, §3, §4

facial skin = assay: Method of treatment: topical application to the face, appearance of aging skin; assay type: in vivo, human; conditions: 0.55% by weight in a vehicle, entire face, one to two times a day for 8 weeks
From the text: A test subject topically applies a composition comprising 0.55% 1-phenylimidazole, by weight in a vehicle, to the entire face one to two times a day for 8 weeks.

[3] = human recombinant CYP3A4, P450-GLO kit
[4] = read-out: hit / no hit (CYP3A4 inhibition), human recombinant CYP3A4, P450-GLO kit

Sequence of CYP3A4 (P08684 whole entry): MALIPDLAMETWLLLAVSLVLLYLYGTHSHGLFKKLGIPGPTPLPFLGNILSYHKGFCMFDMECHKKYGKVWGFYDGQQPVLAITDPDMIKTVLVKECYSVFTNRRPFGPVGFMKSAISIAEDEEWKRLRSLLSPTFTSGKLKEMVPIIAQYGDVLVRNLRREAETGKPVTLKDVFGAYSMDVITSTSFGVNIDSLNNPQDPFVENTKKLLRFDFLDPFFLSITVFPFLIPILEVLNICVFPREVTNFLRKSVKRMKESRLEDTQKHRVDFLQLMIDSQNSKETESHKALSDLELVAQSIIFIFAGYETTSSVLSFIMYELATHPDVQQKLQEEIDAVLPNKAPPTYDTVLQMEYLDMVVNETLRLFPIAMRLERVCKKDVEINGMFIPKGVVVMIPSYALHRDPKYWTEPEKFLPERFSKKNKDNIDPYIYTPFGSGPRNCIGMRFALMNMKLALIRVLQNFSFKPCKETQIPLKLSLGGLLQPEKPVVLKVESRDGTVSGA

Row | Compound | IC50 (CYP3A4; [3]) [µM] | IC50 (CYP3A4; [4]) [µM] | IC50 (CYP3A4; human, recombinant enzyme) [µM] | other results
1 | CC(=O)n1ccnc1 [1-Acetylimidazole] | > 10 | > 10 | – | –
2 | Cn1ccnc1 [1-Methylimidazole] | – | – | > 10 | –
3 | C=Cn1ccnc1 [1-Vinylimidazole] | > 10 | > 10 | – | –
4 | Cc1nccn1Cc1ccccc1 [1-benzyl-2-methylimidazole] | – | – | – | IC50 at 90 min [1]: 308 µM
5 | c1ccc(Cn2ccnc2)cc1 [1-benzylimidazole] | – | – | – | IC50 [1]: 77.5 µM
6 | c1ccc(-n2ccnc2)cc1 [1-phenylimidazole] | 1 | – | – | CYP inhibitory activity (in words) [2]: elicit CYP inhibitory activity; IC50 [1]: 52.5 µM; appearance of aging facial skin after treatment (facial skin): facial skin feels and appears less aged; IC50 (CYP3A4): < 10 µM; inhibitory activity in the CYP3A4 assay (in words) (CYP3A4): showed inhibitory activity
7 | O=C(n1ccnc1)n1ccnc1 [1′-1-Carbonylimidazole] | > 10 | > 10 | – | –
8 | Clc1ccccc1-c1nc2ccccc2[nH]1 [2-(2-Chlorophenyl) benzimidazole] | > 10 | > 10 | – | –
9 | CCCCc1nc(C=O)c(Cl)[nH]1 [2-Butyl-4-chloro-5-formylimidazole] | – | – | > 10 | –
10 | CCc1nc(C)c[nH]1 [2-Ethyl-4-methyl-imidazole] | > 10 | > 10 | – | –
11 | CCc1ncc[nH]1 [2-Ethylimidazole] | – | – | > 10 | –
12 | Cc1ncc[nH]1 [2-Methylimidazole] | > 10 | > 10 | – | –
13 | c1ccc(-c2ncc[nH]2)cc1 [2-phenylimidazole, 2-Phenylimidazole] | > 10 | > 10 | – | CYP inhibitory activity (in words) [2]: lacked any significant inhibitory activity; IC50 [1]: > 500 µM; inhibitory activity in the CYP3A4 assay (in words) (CYP3A4): did not
14 | c1ccc(-c2nc[nH]c2-c2ccccc2)cc1 [4,5-diphenylimidazole] | – | – | – | IC50 at 90 min [1]: 100 µM
15 | CC(=O)c1ccc(-n2ccnc2)cc1 [4′-(Imidazol-1 yl) acetophenome] | – | – | – | IC50 (CYP3A4): < 10 µM
16 | Clc1ncnc2[nH]cnc12 [6-Chloropurine] | – | – | > 10 | –
17 | Nc1nc[nH]n1 [Amitrol] | – | – | > 10 | –

Row | Compound | IC50 (CYP3A4; [3]) [µM] | IC50 (CYP3A4; [4]) [µM] | IC50 (CYP3A4; human, recombinant enzyme) [µM] | other results
18 | CCCCNC(=O)n1c(NC(=O)OC)nc2ccccc21 [Benomyl] | > 10 | > 10 | – | –
19 | c1ccc2[nH]cnc2c1 [Benzimidazole] | > 10 | > 10 | – | –
20 | CC1=N[C@H](C(=O)O)CCN1 [Ectoine] | – | – | > 10 | –
21 | c1coc(-c2nc3ccccc3[nH]2)c1 [Fuberidazole] | > 10 | > 10 | – | –
22 | CC(NC(=O)[C@@H](N)CCC(=O)O)c1ncc[nH]1 (stereo partly shown) [Glutamylamidoethyl imidazole] | – | – | > 10 | –
23 | N=C(N)c1ccc(OCCCCCCOc2ccc(C(=N)N)cc2)cc1 [Hexamidine diisethionate] | > 10 | > 10 | – | –
24 | N[C@@H](Cc1c[nH]cn1)C(=O)O [Histidine] | – | – | > 10 | –
25 | N[C@@H](Cc1c[nH]c2ccccc12)C(=O)O [L-Tryptophan] | – | – | > 10 | –
26 | c1ccc(-c2n[nH]cc2-c2ccnc3ccccc23)nc1 [LY-364947] | – | – | > 10 | –
27 | Cc1cccc(C)c1N(Cn1cccn1)C(=O)CCl [Metazachlor] | > 10 | > 10 | – | –
28 | Cc1ccc2cc3c(ccc4ccccc43)c3c2c1CC3 [Methyl- cholanthrene] | > 10 | – | – | hit / no hit (CYP3A4 inhibition) (CYP3A4; [3]): Near Hit
29 | CCc1cccc(C)c1N(C(=O)CCl)C(C)COC (stereo not shown) [Metolachlor] | – | – | – | IC50 (CYP3A4): > 10 µM
30 | CC(C)(C(=O)c1cccnc1)c1cccnc1 [Metyrapone] | – | – | – | IC50 (CYP3A4): < 10 µM
31 | NCCCn1ccnc1 [N-(3-Aminopropyl) imidazole] | – | – | > 10 | –
32 | O=C(/C=C/C=C/c1ccc2c(c1)OCO2)N1CCCCC1 [Piperine] | – | – | < 10 | –
33 | Cn1c(=O)c2[nH]cnc2n(C)c1=O [Theophylline] | – | > 10 | – | –
34 | CC(=O)/C=C/C1=C(C)CCCC1(C)C [β-Ionone] | – | – | > 10 | –
